# Experimental data as given in patent publication US11938189B2, “Compositions and methods for stabilizing protein-containing formulations” (Genentech, Inc., priority 2010, dated 2024).
# Legend:
# Type in all cases: physicochemical
# [1] = test system: anti-MUC16 monoclonal antibody; experiment: Shaking-induced aggregation (150 rpm), percent monomer by size-exclusion chromatography; conditions: surfactant at one half of its CMC; shaking 150 rpm, 37° C., 64 hours; FIG. 1
# Method: (§1) In this set of studies, a buffered solution (20 mM sodium phosphate buffer, pH 7.4) of monoclonal antibody was subjected to shaking on an orbital shaker at 150 rpm, at a controlled temperature of 37° C. These studies were carried out using a 3 ml solution fill of the antibody solution in a 6 cc glass vial. Samples were withdrawn at regular intervals and analyzed for percent monomer using size-exclusion chromatography. Various surfactants of the class of alkylglycosides were evaluated for their effectiveness to prevent protein aggregation during shaking. The surfactants were used at concentrations below their respective critical micelle concentration (CMC) or above their respective CMC.
# The surfactants were employed at one half the concentration of their respective CMC values, i.e., 1.1 mM (0.035% w/v) n-decyl-β-D-glucopyranoside, 9 mM (0.24%) n-octyl-β-D-glucopyranoside and 0.04 mM (0.0035%) polysorbate 20.
# [2] = test system: anti-MUC16 monoclonal antibody; experiment: Stirring-induced aggregation (500 rpm), turbidity; conditions: surfactant at one-tenth of its CMC; stirring 500 rpm, ambient temperature, 90 minutes; FIG. 2
# Method: In this set of studies, a Tefloncoated magnetic stir bar was used to induce agitation in a buffered solution (20 mM histidine-acetate, pH 5.5) of monoclonal antibody. 3 ml of the antibody solution was filled in a 6 cc glass vial and the solution was stirred at 500 rpm using a Teflon-coated stir bar. The solution was stirred for a period of 90 minutes and samples were withdrawn at regular intervals and analyzed for turbidity as an indication of formation of insoluble aggregates. Various surfactants of the class of alkylglycosides were evaluated for their effectiveness to prevent protein aggregation during shaking. The surfactants were used at concentrations below their respective critical micelle concentration (CMC) or above their respective CMC.
# FIGS. 2 and 3 show the time-course of turbidity formation in a solution of the anti-MUC16 monoclonal antibody following stirring at 500 rpm using a Teflon-coated magnetic bar at ambient temperature for a period of 90 minutes. Turbidity was evaluated in solutions containing no surfactant as well as in solutions containing different alkylglycoside surfactants or polysorbate 20. […]
# [3] = test system: anti-MUC16 monoclonal antibody; experiment: Shaking at 300 rpm, turbidity of antibody formulation; conditions: 0.23 mM (0.02% w/v) polysorbate 20 or 3.6 mM (0.1% w/v) n-octyl-β-D-glucopyranoside; shaking 300 rpm, 72 hours, 37° C.; FIG. 6
# Method: as §1
# In FIG. 4, the effect of varying the concentration of n-octyl-β-D-glucopyranoside on the turbidity of anti-MUC16 monoclonal antibody formulations during shaking at 300 rpm for 72 hours at 37° C. was investigated.
# (§2) In FIGS. 6-9, the effect of 0.23 mM (0.02% w/v) polysorbate 20 or 3.6 mM (0.1% w/v) n-octyl-β-D-glucopyranoside on the turbidity of aqueous formulations of an anti-MUC16 monoclonal antibody (FIG. 6), an anti-IgE monoclonal antibody (FIG. 7), an anti-CD11a monoclonal antibody (FIG. 8), and an anti-CD22 monoclonal antibody (FIG. 9), during shaking at 300 rpm for 72 hours at 37° C. was investigated.
# [4] = test system: anti-CD11a monoclonal antibody; experiment: as above; conditions: 0.23 mM (0.02% w/v) polysorbate 20 or 3.6 mM (0.1% w/v) n-octyl-β-D-glucopyranoside; shaking 300 rpm, 72 hours, 37° C.; FIG. 8
# Method: as §1, §2
# [5] = test system: anti-CD22 monoclonal antibody; experiment: as above; conditions: 0.23 mM (0.02% w/v) polysorbate 20 or 3.6 mM (0.1% w/v) n-octyl-β-D-glucopyranoside; shaking 300 rpm, 72 hours, 37° C.; FIG. 9
# Method: as §1, §2
# [6] = test system: anti-IgE monoclonal antibody; experiment: as above; conditions: 0.23 mM (0.02% w/v) polysorbate 20 or 3.6 mM (0.1% w/v) n-octyl-β-D-glucopyranoside; shaking 300 rpm, 72 hours, 37° C.; FIG. 7
# Method: as §1, §2
# [7] = Hydrogen peroxide formation in stored surfactant solutions (Amplex Red Hydrogen Peroxide assay); conditions: 0.1% w/v surfactant in water, stored at 40° C. for one month; FIG. 14
# Method: In a first experiment, solutions of surfactants of the class of alkylglycosides, i.e., n-decyl-β-D-glucopyranoside, n-octyl-β-D-glucopyranoside, and n-decyl-β-D-maltopyranoside, as well as polysorbate 20 at a concentration of 0.1% w/v in water were stored at 40° C. for a period of one month. Samples were then withdrawn and analyzed for the presence of hydrogen peroxide using the Amplex Red Hydrogen Peroxide assay. the results of these analyses are shown in FIG. 14.
# [8] = test system: anti-CD11a monoclonal antibody; experiment: Oxidation of Met256 on storage in surfactant-containing antibody solution; conditions: 0.1% w/v surfactant, FIG. 15
# Method: In a second experiment, oxidation of the Met256 amino acid residue in an anti-CD11a monoclonal antibody in solutions containing either n-decyl-β-D-glucopyranoside, n-octyl-β-D-glucopyranoside, or polysorbate 20 was evaluated. For this purpose, 3 ml of the buffered antibody solution (pH 6.0) containing 0.1% w/v of the surfactant was stored in 6 cc vials at either 5° C. or 40° C. for a period of either 2 or 4 weeks.
# [9] = test system: Humanized anti-oxidized LDL monoclonal antibody; experiment: Light-induced oxidation of tryptophan residues (LC/MS/MS tryptic peptide map); conditions: Light 24 hrs; 0.02% surfactant
# Method: MAb samples and light treatment: Humanized anti-oxidized LDL monoclonal antibody, was produced at Genentech, Inc. from a CHO cell line. Three independent samples were prepared for photostability studies: 1) control sample, vial wrapped with aluminum foil; 2) test sample, vial light exposed (unwrapped); 3) test sample, vial light exposed (unwrapped) containing the specified non-ionic surfactant. Both control & light exposed samples were kept in a light box for 24 hrs. Light exposure following ICH guideline with following setting for a Atlas SUNTEST CPS+Light Box: Irradiance level=250 watts/square meter; Time set for 24 hours; Total UV dose=538 watt-hours/square meter; Total visible dose=1,320,000 lux-hours.
# LC/MS/MS of tryptic MAb peptide map: Samples were digested with trypsin after reduction and alkylation. The resulting peptides were analyzed with a Thermo LTQ-Orbitrap mass spectrometer coupled with an Agilent 1200 capillary HPLC system. HPLC column: Jupiter 5 um C18 250×1.0 mm, flow rate: 70 uL/min, column oven temperature: 55° C. Solvent A: 0.1% TFA in water, B: 0.09% TFA in 90% ACN. Orbitrap setting: MS resolution 60000, MS/MS collected in data dependent mode, using LTQ.
# The effect of light, and the protective effect of non-ionic surfactants, on the oxidation of tryptophan residues on an anti-oxidized LDL antibody was determined.
substance,measurement,setting,value
"polyoxyethylene sorbitan monolaurate [polysorbate 20, reference compound]",prevention of shaking-induced loss of percent monomer,[1],not effective in preventing shaking-induced loss of monomer
same,prevention of turbidity development on stirring,[2],effective in preventing turbidity development
same,inhibition of visible antibody aggregates measured by turbidity formation,[3],effectively inhibited the formation of visible antibody aggregates
same,inhibition of visible antibody aggregates measured by turbidity formation,[4],effectively inhibited the formation of visible antibody aggregates
same,inhibition of visible antibody aggregates measured by turbidity formation,[5],effectively inhibited the formation of visible antibody aggregates
same,inhibition of visible antibody aggregates measured by turbidity formation,[6],effectively inhibited the formation of visible antibody aggregates
same,hydrogen peroxide formed in surfactant solution,[7],about 10 μM
same,percent of Met256 residues oxidized,"[8]; pH 6.0, storage at 40° C. for 4 weeks",approximately 16%
same,percent of Met256 residues oxidized,"[8]; pH 6.0, time zero",approximately 2%
same,% Oxidized Trp33,[9],0.6%
same,% Oxidized Trp92,[9],8.9%
